Experimental data published in patent publication US20210392935A1, “PREPARATION COMPRISING A PROBIOTIC STRAIN OF THE GENUS BACILLUS MEGATERIUM AND A POLYUNSATURATED FATTY ACID COMPONENT” (Evonik Operations GmbH, priority 2018, published 2021).

What was measured:
Assay type in all cases: cell-based
[1] = test system: Bacillus megaterium DSM 32963 cells; experiment: Lipidometabolomics (UPLC-MS/MS) of PUFA oxygenation products in supernatants of B. megaterium DSM 32963 with AvailOm; conditions: for abundance with dispersion formulation and/or bile acids compared to AvailOm alone (in words): B. megaterium DSM 32963 supernatants; for Extracellular concentration of PUFA oxygenation product: − bile acids, net of cell-free control
Procedure: To investigate the amount of extracellularly appearing 18-HEPE, the B. megaterium DSM 32963 cells were cultivated as described in example 1. The cells were resuspended in 10 ml LBG or LBG containing 9.76 g/I FeSSIF-V2 (biorelevant.com), which is a mixture of taurocholate, phospholipids and other components designed to simulate bile surfactants, and 2 ml of supplements (table 2) were added, respectively. Additionally, the supplements were also added respectively to the different media in shaking flasks without cells and treated under the same conditions (controls). The 18-HEPE concentrations of the culture supernatants and controls were determined after incubation at 16 h, 30° C. and 200 rpm (table 4). […] Of note, the omega-3 4 18-HEPE conversion rate detected by this method is up to 0.075, which exceeds the basal content of 18-HEPE of 0.0005% in an esterified fish oil, disclosed by WO 2017/041094. More importantly, we discovered that the omega-3 lysine salt is converted by Bacillus megaterium strains to a multitude of (final) SPM products at even higher concentrations than 18-HEPE (see example 6), which is of physiological relevance.
(§1) Bacterial supernatant samples were subjected to lipid extraction using RP-phase solid phase extraction and subsequently analyzed by ultra performance liquid chromatography ESI tandem mass spectrometry (UPLC-MS/MS) according to a published procedure. Under these conditions approximately 40 different LM, including 5-hydroxy-eicosapentaenoic acid 5-HEPE, 8-HEPE, 11-HEPE, 12-HEPE, 15-HEPE, 18-HEPE, 5-hydroxy-eicosatetraenoic acid (5-HETE), 8-HETE, 11-HETE, 12-HETE, 15-HETE, 4-hydroxy-DHA (4-HDHA), 7-HDHA, 13-HDHA, 14-HDHA, 17-HDHA, lipoxin A4 (LXA4), LXB4, resolvin E1 (RvE1), RvE3, resolvin D1-5 (RvD1-5), AT-RvD1, RvD2, protectin D1 (PD1), AT-PD1, maresin 1(MaR1), MaR2, plus 4 fatty acid substrates can be detected with a lower limit of detection of 1 pg.
To investigate if Bacillus megaterium is capable of producing other PUFA oxygenation products in addition to 18-HEPE, a lipidometabolomics screening of supernatants from Bacillus megaterium strain 32963 cultured as in example 4 with AvailOm® was performed, either dissolved or in a dispersion formulation, with or without bile acids. Cell-free preparations of AvailOm® formulations were treated and analyzed in parallel and served as controls for non-enzymatic, spontaneous formation of oxygenation products. Values given in table 6 display net concentrations of products formed, i.e. after subtraction of control values. […] Concentrations of several SPM exceed by far the concentrations of SPM found in human plasma samples, which are typically in a range of ˜20-100 pg/ml. For comparison, human breast milk contains ˜6.000 pg/ml RvE1 and ˜10.000 pg/ml RvD1 [42].

[2] = test system: Bacillus megaterium DSM 33299; experiment: Lipidometabolomics of supernatants of B. megaterium DSM 33299 with AvailOm dispersion; conditions: Bacillus megaterium DSM 33299, AvailOm dispersion; net concentrations
Source text: as §1
(§2) 47 additional Bacillus megaterium strains sourced from various habitats were screened for their SPM production capacity to determine if this is a general phenomenon of the species Bacillus megaterium and to detect strain-specific differences in types and quantities of SPM being produced. Cells were cultured as detailed in example 4, with dispersion formulation of AvailOm® serving as omega-3 fatty acid source. Cell-free preparations of AvailOm® were treated and analyzed in parallel and served as controls for non-enzymatic, spontaneous formation of oxygenation products. […]

[3] = test system: Bacillus megaterium DSM 33296; experiment: Lipidometabolomics of supernatants of B. megaterium DSM 33296 with AvailOm dispersion; conditions: Bacillus megaterium DSM 33296, AvailOm dispersion; net concentrations
Source text: as §1, §2

[4] = test system: Bacillus megaterium strains; experiment: Screen of 47 additional Bacillus megaterium strains for SPM production capacity; conditions: 47 additional strains, AvailOm dispersion
Source text: as §1, §2

| Compound | abundance with dispersion formulation and/or bile acids compared to AvailOm alone (in words) [1] | also measured |
| --- | --- | --- |
| 5-hydroxy-eicosatetraenoic acid [5-HETE] | lower |  |
| CCC=CCC=CCC=CCC=CC=CC(O)CCCC(=O)O (stereo not shown) [5-HEPE, 5-hydroxy-eicosapentaenoic acid] | lower |  |
| CCCCC/C=C\C/C=C\C=C\C(O)C/C=C\CCCC(=O)O (stereo not shown) [8-HETE, 8-hydroxy-eicosatetraenoic acid] | lower |  |
| CC/C=C\C[C@H](O)/C=C/C=C\C=C\C=C\[C@@H](O)[C@@H](O)C/C=C\CCC(=O)O [RvD1, resolvin D1] |  | Extracellular concentration of PUFA oxygenation product [2]: 4389 pg/mL; Extracellular concentration of PUFA oxygenation product ([1]; AvailOm dispersion): 1863 pg/mL; Extracellular concentration of PUFA oxygenation product ([1]; AvailOm): 598 pg/mL; Extracellular concentration of PUFA oxygenation product [3]: 3626 pg/mL |
| 11-hydroxy-eicosapentaenoic acid [11-HEPE] | lower |  |
| 9-hydroxyoctadecadienoic acid [9-HODE] | lower |  |
| CC[C@H](O)C(O)/C=C/C=C/C=C\C/C=C\C/C=C\CCCC(=O)O (stereo partly shown) [RvE3, resolvin E3] |  | concentration in most of the strains [4]: up to 1.3 μg/ml |
| 12-hydroxy-eicosapentaenoic acid [12-HEPE] | lower |  |
| CC/C=C\CC(O)/C=C/C=C\C/C=C\C/C=C\CCCC(=O)O (stereo not shown) [15-HEPE, 15-hydroxy-eicosapentaenoic acid] | lower |  |
| CCC(O)/C=C/C=C\C/C=C\C/C=C\C/C=C\CCCC(=O)O (stereo not shown) [18-HEPE, 18-hydroxy-eicosapentaenoic acid] | lower |  |
